Structures can show the parent of a compound that is named as a salt.

The target of the first assay is T1, IRAK4 (Homo sapiens, UniProt Q9NWZ3).
T1 sequence (Q9NWZ3 1-460): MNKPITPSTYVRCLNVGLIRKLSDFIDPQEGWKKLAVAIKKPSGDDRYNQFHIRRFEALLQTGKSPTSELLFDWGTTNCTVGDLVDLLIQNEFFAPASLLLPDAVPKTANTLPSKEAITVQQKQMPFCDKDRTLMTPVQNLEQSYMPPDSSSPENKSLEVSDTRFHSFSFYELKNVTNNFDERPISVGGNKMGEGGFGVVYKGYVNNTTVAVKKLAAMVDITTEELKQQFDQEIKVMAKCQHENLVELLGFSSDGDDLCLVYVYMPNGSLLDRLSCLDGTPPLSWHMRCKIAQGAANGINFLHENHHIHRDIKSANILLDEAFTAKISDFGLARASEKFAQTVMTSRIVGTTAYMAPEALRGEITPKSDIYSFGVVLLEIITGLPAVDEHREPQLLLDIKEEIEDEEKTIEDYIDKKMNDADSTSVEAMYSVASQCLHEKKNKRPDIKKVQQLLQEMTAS
The assay is described as follows: biochemical.
Conditions: not given
Turning to `CC(C)Oc1c(C(=O)Nc2cccc(-c3cnn(C)c3)n2)cn2cc(C34COC(C)(C3)C4)nc2c1F` [Example 393, 8-Fluoro-7-isopropoxy-N-(6-(1-methyl-1H-pyrazol-4-yl)pyridin-2-yl)-2-(1-methyl-2-oxabicyclo[2.1.1]hexan-4-yl)imidazo[1,2-a]pyridine-6-carboxamide], the IC50 (usually the concentration that gives 50% inhibition) was 0.0001 µM.
The same measure, in the same setting: to `CC(C)Oc1cc(C(=O)Nc2cccc(C(F)F)n2)cn2cc(C3CCCOC3)nc12` (stereo not shown) [Example 394, N-(6-(difluoromethyl)pyridin-2-yl)-8-isopropoxy-2-(tetrahydro-2H-pyran-3-yl)imidazo[1,2-a]pyridine-6-carboxamide] belongs 0.0057 µM.
Take `CC(C)Oc1nc2nc(C3C4COCC43)cn2cc1C(=O)Nc1ccn(C(F)F)n1` (stereo not shown) [Example 395, 2-(3-Oxabicyclo[3.1.0]hexan-6-yl)-N-(1-(difluoromethyl)-1H-pyrazol-3-yl)-7-isopropoxyimidazo[1,2-a]pyrimidine-6-carboxamide]: the 50% inhibitory concentration (IC50) was determined as 0.0057 µM.
In turn, `CC(C)Oc1nc2nc(C34COC(C)(C3)C4)cn2cc1C(=O)Nc1nc(C(F)(F)F)cs1` [Example 397, 7-Isopropoxy-2-(1-methyl-2-oxabicyclo[2.1.1]hexan-4-yl)-N-(4-(trifluoromethyl)thiazol-2-yl)imidazo[1,2-a]pyrimidine-6-carboxamide] came in with an IC50 of 0.0134 µM.
On the same count and under the same terms, the same measure for `CC(C)Oc1nc2nc(C34COC(C)(C3)C4)cn2cc1C(=O)Nc1cccc(F)c1Cl` [Example 399, N-(2-chloro-3-fluorophenyl)-7-isopropoxy-2-(1-methyl-2-oxabicyclo[2.1.1]hexan-4-yl)imidazo[1,2-a]pyrimidine-6-carboxamide]: 0.003 µM; for `CC(C)Oc1nc(C(=O)Nc2ccnc3ccnn23)cn2cc(C34COC(C)(C3)C4)nc12` [Example 400, 8-Isopropoxy-2-(1-methyl-2-oxabicyclo[2.1.1]hexan-4-yl)-N-(pyrazolo[1,5-a]pyrimidin-7-yl)imidazo[1,2-a]pyrazine-6-carboxamide]: 0.0136 µM; for `COc1cccn2ncc(NC(=O)c3cn4cc(C56COC(C)(C5)C6)nc4c(OC(C)C)n3)c12` [Example 401, 8-Isopropoxy-N-(4-methoxypyrazolo[1,5-a]pyridin-3-yl)-2-(1-methyl-2-oxabicyclo[2.1.1]hexan-4-yl)imidazo[1,2-a]pyrazine-6-carboxamide]: 0.0002 µM.
Compound `CC(C)Oc1cc2nc(C34CC(C#N)(C3)C4)cn2cc1C(=O)Nc1cccc(C(F)F)n1` [Example 402, 2-(3-Cyanobicyclo[1.1.1]pentan-1-yl)-N-(6-(difluoromethyl)pyridin-2-yl)-7-isopropoxyimidazo[1,2-a]pyridine-6-carboxamide] displayed an IC50 of 0.0002 µM.
`COc1ncccc1NC(=O)c1cn2cc(C34CC(C#N)(C3)C4)nc2cc1OC(C)C` [Example 403, 2-(3-Cyanobicyclo[1.1.1]pentan-1-yl)-7-isopropoxy-N-(2-methoxypyridin-3-yl)imidazo[1,2-a]pyridine-6-carboxamide]: the IC50 amounted to 0.0008 µM.
Turning to `CC(C)Oc1cc2nc(C34CC(C#N)(C3)C4)cn2cc1C(=O)Nc1ccn(C)n1` [Example 404, 2-(3-Cyanobicyclo[1.1.1]pentan-1-yl)-7-isopropoxy-N-(1-methyl-1H-pyrazol-3-yl)imidazo[1,2-a]pyridine-6-carboxamide], it took 0.0077 µM to reach half-maximal inhibition (IC50). This IC50 is about 9.6-fold higher than that of the compound before.
Compound `CC12CC(c3cn4cc(C(=O)Nc5cnn6cccnc56)c(OC5CCC5)cc4n3)(CO1)C2` [Example 406, 7-Cyclobutoxy-2-(1-methyl-2-oxabicyclo[2.1.1]hexan-4-yl)-N-(pyrazolo[1,5-a]pyrimidin-3-yl)imidazo[1,2-a]pyridine-6-carboxamide] had a 50% inhibitory concentration (IC50) of 0.0003 µM.
In the case of `COc1cnc2c(NC(=O)c3cn4cc(C56COC(C)(C5)C6)nc4c(F)c3OC(C)C)cnn2c1` [Example 407, 8-Fluoro-7-isopropoxy-N-(6-methoxypyrazolo[1,5-a]pyrimidin-3-yl)-2-(1-methyl-2-oxabicyclo[2.1.1]hexan-4-yl)imidazo[1,2-a]pyridine-6-carboxamide], the IC50 worked out at 0.0052 µM. Compared with the last compound, the IC50 is about 17-fold higher.
Regarding `CC(C)Oc1nc2nc(C34COC(C)(C3)C4)cn2cc1C(=O)Nc1cnn2cccc(F)c12` [Example 408, N-(4-fluoropyrazolo[1,5-a]pyridin-3-yl)-7-isopropoxy-2-(1-methyl-2-oxabicyclo[2.1.1]hexan-4-yl)imidazo[1,2-a]pyrimidine-6-carboxamide], the IC50 came to 0.0007 µM.
The same measure, in the same setting: to `CC(C)Oc1nc2nc(C34COC(C)(C3)C4)cn2cc1C(=O)Nc1cccn2cnnc12` [Example 409, N-([1,2,4]triazolo[4,3-a]pyridin-8-yl)-7-isopropoxy-2-(1-methyl-2-oxabicyclo[2.1.1]hexan-4-yl)imidazo[1,2-a]pyrimidine-6-carboxamide] belongs 0.0015 µM; to `CC(C)Oc1nc2nc(C34COC(C)(C3)C4)cn2cc1C(=O)Nc1cccc2ncnn12` [Example 410, N-([1,2,4]triazolo[1,5-a]pyridin-5-yl)-7-isopropoxy-2-(1-methyl-2-oxabicyclo[2.1.1]hexan-4-yl)imidazo[1,2-a]pyrimidine-6-carboxamide], 0.0002 µM; to `CC(C)Oc1nc2nc(C34COC(C)(C3)C4)cn2cc1C(=O)Nc1cccc(OC(F)F)n1` [Example 411, N-(6-(difluoromethoxy)pyridin-2-yl)-7-isopropoxy-2-(1-methyl-2-oxabicyclo[2.1.1]hexan-4-yl)imidazo[1,2-a]pyrimidine-6-carboxamide], 0.0008 µM.
`CC(C)Oc1nc2nc(C34COC(C)(C3)C4)cn2cc1C(=O)Nc1cccc(OC(F)(F)F)n1` [Example 412, 7-Isopropoxy-2-(1-methyl-2-oxabicyclo[2.1.1]hexan-4-yl)-N-(6-(trifluoromethoxy)pyridin-2-yl)imidazo[1,2-a]pyrimidine-6-carboxamide] registered an IC50 of 0.0012 µM.
`CC(C)Oc1nc2nc(C34COC(C)(C3)C4)cn2cc1C(=O)Nc1cccc(-c2cnn(C)c2)n1` [Example 413, 7-Isopropoxy-N-(6-(1-methyl-1H-pyrazol-4-yl)pyridin-2-yl)-2-(1-methyl-2-oxabicyclo[2.1.1]hexan-4-yl)imidazo[1,2-a]pyrimidine-6-carboxamide] gave a half-maximal inhibitory concentration (IC50) of 0.0001 µM.
`CC(C)Oc1cc2nc(C34CCC(C)(C3)OC4)cn2cc1C(=O)Nc1ccn(C)n1` (stereo not shown) [Example 414, 7-Isopropoxy-N-(1-methyl-1H-pyrazol-3-yl)-2-(1-methyl-2-oxabicyclo[2.2.1]heptan-4-yl)imidazo[1,2-a]pyridine-6-carboxamide]: the IC50 was 0.0033 µM.
As to `CC(C)Oc1cc2nc(C34CCC(C3)OC4)cn2cc1C(=O)Nc1ccn(C)n1` (stereo not shown) [Example 415, 2-(2-Oxabicyclo[2.2.1]heptan-4-yl)-7-isopropoxy-N-(1-methyl-1H-pyrazol-3-yl)imidazo[1,2-a]pyridine-6-carboxamide], the IC50 was found to be 0.0085 µM.
Compound `CC(C)Oc1cc2nc(C34CCC(C3)OC4)cn2cc1C(=O)Nc1cnn2cccnc12` (stereo not shown) [Example 416, 2-(2-Oxabicyclo[2.2.1]heptan-4-yl)-7-isopropoxy-N-(pyrazolo[1,5-a]pyrimidin-3-yl)imidazo[1,2-a]pyridine-6-carboxamide] had an IC50 of 0.0006 µM.
The same measure, in the same setting: to `CC(C)Oc1cc2nc(C34CCC(C)(C3)OC4)cn2cc1C(=O)Nc1cnn2cccnc12` (stereo not shown) [Example 417, 7-Isopropoxy-2-(1-methyl-2-oxabicyclo[2.2.1]heptan-4-yl)-N-(pyrazolo[1,5-a]pyrimidin-3-yl)imidazo[1,2-a]pyridine-6-carboxamide] belongs 0.0002 µM.
Compound `CC12CCC(c3cn4cc(C(=O)Nc5ccn(C(F)F)n5)c(OC5CCC5)cc4n3)(CO1)C2` (stereo not shown) [Example 418, 7-Cyclobutoxy-N-(1-(difluoromethyl)-1H-pyrazol-3-yl)-2-(1-methyl-2-oxabicyclo[2.2.1]heptan-4-yl)imidazo[1,2-a]pyridine-6-carboxamide] registered an IC50 of 0.0021 µM.

Still in this assay, the particulars now being: IRAK4 Biochemical Assay (1 mM ATP, 2 h) IC50 (μM), 1 mM ATP, 2 h, 100 pM IRAK4.
`CCOc1cc2nc(C3(OC)CC3)cn2cc1C(=O)Nc1cccc(C(F)F)n1` [Example 390, N-(6-(difluoromethyl)pyridin-2-yl)-7-ethoxy-2-(1-methoxy-cyclopropyl)imidazo[1,2-a]pyridine-6-carboxamide hydrochloride] displayed an IC50 of 0.009 µM.
On the same count and under the same terms, to `CCOc1cc2nc(C3CCOCC3)cn2cc1C(=O)Nc1cccc(C2CCOC2)n1` (stereo not shown) [Example 391, 7-Ethoxy-2-(tetrahydro-2H-pyran-4-yl)-N-(6-(tetrahydrofuran-3-yl)pyridin-2-yl)imidazo[1,2-a]pyridine-6-carboxamide hydrochloride] belongs 0.0034 µM; to `CCOc1cc2nc(C3CCOCC3)cn2cc1C(=O)Nc1cccc(C(F)CF)n1` (stereo not shown) [Example 392, N-(6-(1,2-difluoroethyl)pyridin-2-yl)-7-ethoxy-2-(tetrahydro-2H-pyran-4-yl)imidazo[1,2-a]pyridine-6-carboxamide hydrochloride], 0.0018 µM; to `CC(C)Oc1nc2nc(C3C4COCC43)cn2cc1C(=O)Nc1ccn(C)n1` (stereo not shown) [Example 396, 2-(3-Oxabicyclo[3.1.0]hexan-6-yl)-7-isopropoxy-N-(1-methyl-1H-pyrazol-3-yl)imidazo[1,2-a]pyrimidine-6-carboxamide formate], 0.0076 µM.
Same read-out and setting: to `CC(C)Oc1nc2nc(C34COC(C)(C3)C4)cn2cc1C(=O)Nc1cnn2cc(F)cnc12` [Example 398, N-(6-fluoropyrazolo[1,5-a]pyrimidin-3-yl)-7-isopropoxy-2-(1-methyl-2-oxabicyclo[2.1.1]hexan-4-yl)imidazo[1,2-a]pyrimidine-6-carboxamide] belongs 0.0002 µM.

Source of the values: patent US20230087118A1, “IMIDAZO[1,2-a][sequence] DERIVATIVES AND THEIR USE IN THE TREATMENT OF DISEASE” (priority 2019, published 2023).
